The target of this assay is T1, ligand binding domain of human ROR gamma (Homo sapiens, UniProt P51449).
T1 construct: NM_001001523; expressed in transfected cells; host or cells: HEK293T
T1 sequence (P51449 247-497 isoform P51449-2): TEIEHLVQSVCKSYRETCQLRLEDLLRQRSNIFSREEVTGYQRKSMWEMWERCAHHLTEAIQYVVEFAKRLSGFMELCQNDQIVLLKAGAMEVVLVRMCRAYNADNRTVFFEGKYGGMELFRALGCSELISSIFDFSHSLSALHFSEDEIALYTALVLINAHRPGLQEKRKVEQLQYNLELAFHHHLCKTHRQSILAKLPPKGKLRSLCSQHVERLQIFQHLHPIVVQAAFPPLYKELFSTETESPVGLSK
In words: ROR gamma reporter gene assay (GAL4-RORγ LBD luciferase, Dual-Glo). It counts as cell-based. The conditions noted are these: HEK293T cells transfected with pM-ROR gamma, 8 concentrations 3.5 nM to 10.5 μM, 24 h incubation; read-out: result (pIC50, inhibition of RORγ transcriptional activity) (converted). The protocol:
Luciferase reporter gene assay was used to assess inhibition of RORγ transcriptional activity.
ROR gamma expression vector was prepared by inserting the ligand binding domain of human ROR gamma (amino acid 247-497 of Genbank Accession NO. NM_001001523) adjacent to the yeast GAL4 transcription factor DNA binding domain in the expression vector pM (Clontech). The resulting expression vector pM-ROR gamma was used in transfection experiments together with the pGL4 luciferase reporter plasmid (Promega) containing five copies of the UAS GAL4 recognition site and pRL-CMV plasmids (Promega) containing the constitutive CMV promoter and the renilla luciferase.
For preparing transfection reagent/DNA mixture, 1 μg pM-ROR gamma, 1 μg pGL4 5×UAS, 625 pg pRL-CMV and 6.25 μL FuGENE™ HD transfection reagent (Promega) were mixed in 0.25 mL OPTI-MEM™ (Life technologies) at room temperature. At the same time, Negative control DNA mixture was prepared by using 1 μg pM empty vector instead of pM-ROR gamma plasmid. After a fifteen minute incubation, 0.25 mL of transfection reagent/DNA mixture was added to 1,000,000 of HEK293T cells (ATCC) in 5 mL of OPTI-MEM™ containing 10% Charcoal Stripped Fetal Bovine Serum.
Transfected cells were seeded onto 384 well plate (10 μL/well) and the 7.5 nL of test compounds were added to the wells in 8 concentrations ranging from 3.5 nM to 10.5 μM. The compounds were dissolved in 100% DMSO and the final concentration of DMSO in the assay was 0.075%.
After 24 h of incubation at 37° C., 5% CO2 in a cell culture incubator, the Dual-Glo™ Luciferase Assay System was used to detect activity according to the manufacturer's instructions (Promega, Cat. No.: E2920).
Data was plotted and pIC50 values were calculated using the XLfit program (ID Business Solutions Ltd.).
A general note: Reporter assays use an easily measured gene product as a stand-in for the process of interest.
In the case of `CC(=O)Nc1cccc(Cl)c1C(=O)CN(Cc1cc(F)cc(F)c1)C(=O)c1cnn([C@H]2CC[C@H](C(=O)O)CC2)c1C(F)(F)F` [Example 13, trans-4-(4-((2-(2-acetamido-6-chlorophenyl)-2-oxoethyl)(3,5-difluorobenzyl)carbamoyl)-5-(trifluoromethyl)-1H-pyrazol-1-yl)cyclohexanecarboxylic acid], the IC50 was 93300 pM. For `O=C(CN(Cc1cc(F)cc(F)c1)C(=O)c1cnn([C@H]2CC[C@H](C(=O)O)CC2)c1C(F)(F)F)c1c(O)cccc1Cl` [Example 15, trans-4-(4-((2-(2-chloro-6-hydroxyphenyl)-2-oxoethyl)(3,5-difluorobenzyl)carbamoyl)-5-(trifluoromethyl)-1H-pyrazol-1-yl)cyclohexanecarboxylic acid], the IC50 was 95500 pM. With `CC1(C)CC[C@H](CN(CC(=O)c2c(Cl)cncc2Cl)C(=O)c2cnn([C@H]3CC[C@H](C(=O)O)CC3)c2C(F)(F)F)O1` [Example 16, trans-4-(4-((2-(3,5-dichloropyridin-4-yl)-2-oxoethyl)(((R)-5,5-dimethylTHF-2-yl)methyl)carbamoyl)-5-(trifluoromethyl)-1H-pyrazol-1-yl)cyclohexanecarboxylic acid] the figure was 117000 pM; with `O=C(CN(Cc1cc(F)cc(F)c1)C(=O)c1cnn([C@H]2CC[C@H](C(=O)O)CC2)c1C1CC1)c1c(Cl)cncc1Cl` [Example 17, trans-4-(5-cyclopropyl-4-((2-(3,5-dichloropyridin-4-yl)-2-oxoethyl)(3,5-difluorobenzyl)carbamoyl)-1H-pyrazol-1-yl)cyclohexanecarboxylic acid], 24500 pM; with `O=C(CN(Cc1cc(F)cc(F)c1)C(=O)c1cnn([C@H]2CC[C@H](C(=O)O)CC2)c1C(F)(F)F)c1c(Cl)cc(C(F)F)cc1Cl` [Example 18, trans-4-(4-((2-(2,6-dichloro-4-(difluoromethyl)phenyl)-2-oxoethyl)(3,5-difluorobenzyl)carbamoyl)-5-(trifluoromethyl)-1H-pyrazol-1-yl)cyclohexanecarboxylic acid], 11700 pM. Then `CC1(O)CCC(CN(CC(=O)c2c(Cl)cncc2Cl)C(=O)c2cnn([C@H]3CC[C@H](C(=O)O)CC3)c2C(F)(F)F)CC1` (stereo partly drawn) [Example 19, trans-4-(4-((2-(3,5-dichloropyridin-4-yl)-2-oxoethyl)((4-hydroxy-4-methylcyclohexyl)methyl)carbamoyl)-5-(trifluoromethyl)-1H-pyrazol-1-yl)cyclohexanecarboxylic acid], with above 1e+07 pM; and `O=C(CN(Cc1cc(F)cc(F)c1)C(=O)c1cnn([C@H]2CC[C@H](C(=O)O)CC2)c1C(F)F)c1c(Cl)cncc1Cl` [Example 20, trans-4-(4-((2-(3,5-Dichloropyridin-4-yl)-2-oxoethyl)(3,5-difluorobenzyl)carbamoyl)-5-(difluoromethyl)-1H-pyrazol-1-yl)cyclohexanecarboxylic acid], with 70800 pM; and `Nc1nccc(Cl)c1C(=O)CN(Cc1cc(F)cc(F)c1)C(=O)c1cnn([C@H]2CC[C@H](C(=O)O)CC2)c1C(F)(F)F` [Example 21, trans-4-(4-((2-(2-amino-4-chloropyridin-3-yl)-2-oxoethyl)(3,5-difluorobenzyl)carbamoyl)-5-(trifluoromethyl)-1H-pyrazol-1-yl)cyclohexanecarboxylic acid], with above 1e+07 pM. With `N#Cc1ccccc1CN(CC(=O)c1c(Cl)cncc1Cl)C(=O)c1cnn([C@H]2CC[C@H](C(=O)O)CC2)c1C(F)(F)F` [Example 22, trans-4-(4-((2-cyanobenzyl)(2-(3,5-dichloropyridin-4-yl)-2-oxoethyl)carbamoyl)-5-(trifluoromethyl)-1H-pyrazol-1-yl)cyclohexanecarboxylic acid] the figure was above 1e+07 pM; with `CC1(C)CC(CN(CC(=O)c2c(Cl)cncc2Cl)C(=O)c2cnn([C@H]3CC[C@H](C(=O)O)CC3)c2C(F)(F)F)C1` [Example 23, trans-4-(4-((2-(3,5-dichloropyridin-4-yl)-2-oxoethyl)((3,3-dimethylcyclobutyl)methyl)carbamoyl)-5-(trifluoromethyl)-1H-pyrazol-1-yl)cyclohexanecarboxylic acid], 24000 pM. `O=C(O)C1CCC(n2ncc(C(=O)N(CCc3c(Cl)cncc3Cl)Cc3ccc(F)cc3)c2C(F)(F)F)CC1` (stereo not drawn) [Example 24, 4-(4-((2-(3,5-dichloropyridin-4-yl)ethyl)(4-fluorobenzyl)carbamoyl)-5-(trifluoromethyl)-1H-pyrazol-1-yl)cyclohexanecarboxylic acid]: the IC50 was 166000 pM.

Take `O=C(CN(Cc1ccc(F)cc1)C(=O)c1cnn([C@H]2CC[C@@H](C(=O)O)CC2)c1C(F)(F)F)c1c(Cl)cncc1Cl` [Example 25, cis-4-(4-((2-(3,5-dichloropyridin-4-yl)-2-oxoethyl)(4-fluorobenzyl)carbamoyl)-5-(trifluoromethyl)-1H-pyrazol-1-yl)cyclohexaneca rboxylic acid]: the IC50 was 263000 pM. With `CC(C)CN(CC(=O)c1c(Cl)cncc1Cl)C(=O)c1cnn([C@H]2CC[C@H](C(=O)O)CC2)c1C(F)(F)F` [Example 26, trans-4-(4-((2-(3,5-dichloropyridin-4-yl)-2-oxoethyl)(isobutyl)carbamoyl)-5-(trifluoromethyl)-1H-pyrazol-1-yl)cyclohexanecarboxylic acid], the IC50 is 282000 pM.

In the case of `CC(C)(C)CN(CC(=O)c1c(Cl)cncc1Cl)C(=O)c1cnn([C@H]2CC[C@H](C(=O)O)CC2)c1C(F)(F)F` [Example 27, trans-4-(4-((2-(3,5-dichloropyridin-4-yl)-2-oxoethyl)(neopentyl)carbamoyl)-5-(trifluoromethyl)-1H-pyrazol-1-yl)cyclohexanecarboxylic acid], the IC50 was 56200 pM.

Regarding `O=C(CN(CC1CCC1)C(=O)c1cnn([C@H]2CC[C@H](C(=O)O)CC2)c1C(F)(F)F)c1c(Cl)cncc1Cl` [Example 28, trans-4-(4-((cyclobutylmethyl)(2-(3,5-dichloropyridin-4-yl)-2-oxoethyl)carbamoyl)-5-(trifluoromethyl)-1H-pyrazol-1-yl)cyclohexanecarboxylic acid], the IC50 was 195000 pM. With `O=C(CN(CC1CCCC1)C(=O)c1cnn([C@H]2CC[C@H](C(=O)O)CC2)c1C(F)(F)F)c1c(Cl)cncc1Cl` [Example 29, trans-4-(4-((cyclopentylmethyl)(2-(3,5-dichloropyridin-4-yl)-2-oxoethyl)carbamoyl)-5-(trifluoromethyl)-1H-pyrazol-1-yl)cyclohexanecarboxylic acid] the figure was 75900 pM. Then `O=C(CN(CC1CCCCC1)C(=O)c1cnn([C@H]2CC[C@H](C(=O)O)CC2)c1C(F)(F)F)c1c(Cl)cncc1Cl` [Example 30, trans-4-(4-((cyclohexylmethyl)(2-(3,5-dichloropyridin-4-yl)-2-oxoethyl)carbamoyl)-5-(trifluoromethyl)-1H-pyrazol-1-yl)cyclohexanecarboxylic acid], with 46800 pM; and `CC1(CN(CC(=O)c2c(Cl)cncc2Cl)C(=O)c2cnn([C@H]3CC[C@H](C(=O)O)CC3)c2C(F)(F)F)CC1` [Example 31, trans-4-(4-((2-(3,5-dichloropyridin-4-yl)-2-oxoethyl)((1-methylcyclopropyl)methyl)carbamoyl)-5-(trifluorornethyl)-1H-pyrazol-1-yl)cyclohexanecarboxylic acid], with 77600 pM.

These data come from patent US9365522B2, “Pyrazole amide derivative” (AMGEN INC., priority 2015, dated 2016).
